Data reported in US12391737B2, “Soluble NPY2 receptor agonists” (Boehringer Ingelheim International GmbH, priority 2020, dated 2025).

What was measured:
[1] = biological target: T1, Human Neuropeptide Y2 Receptor (Homo sapiens, UniProt P49146); assay: Radioligand binding competition assay (RLB); conditions: Table 3, 125I-PYY(1-36) competition; read-out: Ki
T1 construct: purchased CHEMICON HTS066M
T1 sequence (P49146 1-381): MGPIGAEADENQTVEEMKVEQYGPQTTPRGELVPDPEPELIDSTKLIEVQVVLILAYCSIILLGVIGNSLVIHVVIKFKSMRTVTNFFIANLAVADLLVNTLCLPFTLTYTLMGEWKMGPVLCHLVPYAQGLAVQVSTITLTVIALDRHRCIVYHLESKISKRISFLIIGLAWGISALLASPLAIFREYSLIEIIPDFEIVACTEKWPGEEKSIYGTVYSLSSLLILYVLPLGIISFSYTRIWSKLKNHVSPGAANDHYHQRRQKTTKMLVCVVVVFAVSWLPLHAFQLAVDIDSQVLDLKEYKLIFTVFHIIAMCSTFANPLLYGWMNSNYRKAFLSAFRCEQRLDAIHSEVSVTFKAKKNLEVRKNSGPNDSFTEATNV
In short: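 IC50 values come from sigmoidal dose-response fits of scintillation counts after peptides competed for radioligand binding at receptor membranes (0.5 μg protein/well). Incubation ran 2 h at room temperature in HEPES buffer, pH 7.4, with Mg2+, Ca2+ and 0.2% ovalbumin.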

[2] = Solubility determination
In short: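 First, TFA-salt peptide was added to 0.1 M sodium diphosphate (pH 6.4 or 7.0) to 10 mg/ml and shaken 2 h at room temperature. Next, insoluble material was filtered off. Finally, filtrate and control, each 1 mg/ml in 50% acetonitrile, were compared by reversed-phase chromatography.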

Ki [1] | Sol6 ([2]; pH 6) | Sol7 ([2]; pH 7) | Compound | Sol6 ([2]; solubility in the pH 6 condition, measured pH printed in the next column (6.0-6.3)) | Sol7 ([2]; solubility in the pH 7 condition, measured pH printed in the next column (6.6-6.9))
1.01 nM | 9.8 mg/mL | 5.7 mg/mL | CC[C@H](C)[C@H](NC(=O)[C@H](Cc1ccc(O)cc1)NC(=O)[C@H](Cc1ccc(O)cc1)NC(=O)[C@H](CCCNC(=N)N)NC(=O)[C@H](CCC(N)=O)NC(=O)[C@H](CC(C)C)NC(=O)[C@H](CCC(=O)O)NC(=O)[C@H](CCC(=O)O)NC(=O)[C@@H]1CCCN1C(=O)[C@@H](NC(=O)[C@H](C)NC(=O)[C@H](CC(=O)O)NC(=O)[C@H](C)NC(=O)[C@H](CCC(=O)O)NC(=O)[C@@H]1CCCN1C(=O)[C@H](CCCCNC(=O)CCCCCNC(=O)CC[C@H](NC(=O)CCCCCCCCCCCCCCCCC(=O)O)C(=O)O)NC(=O)[C@H](CCC(=O)O)NC(=O)[C@@H]1CCCN1C(=O)[C@H](C)NC(=O)CC(C)C)[C@@H](C)O)C(=O)N[C@@H](C)C(=O)N[C@@H](CC(C)C)C(=O)N[C@@H](CCCNC(=N)N)C(=O)N[C@@H](Cc1c[nH]cn1)C(=O)N[C@@H](Cc1ccc(O)cc1)C(=O)N[C@@H](Cc1ccc(O)cc1)C(=O)N[C@@H](CC(N)=O)C(=O)N[C@@H](Cc1c[nH]c2ccccc12)C(=O)N[C@@H](CC(C)C)C(=O)N[C@H](C(=O)N[C@@H](CCCNC(=N)N)C(=O)N[C@@H](CCC(N)=O)C(=O)N[C@@H](CCCNC(=N)N)C(=O)N[C@@H](Cc1ccc(O)cc1)C(N)=O)[C@@H](C)O [Compound 100, N{alpha-4}-(3-methylbutanoyl)-N{epsilon-7}-(6-[(4S)-4-carboxy-4-(17-carboxyheptadecanamido)butanamido]hexanoyl)-[4A,7K,9E,10A,13T,18Q,22I,23A,28Y,30W,31L]-hPYY(4-36)] | – | –
1.57 nM | 10.0 mg/mL | 10.0 mg/mL | CC(C)CC(=O)N[C@@H](C)C(=O)N1CCC[C@H]1C(=O)N[C@@H](C)C(=O)N[C@@H](CCCCNC(=O)CCCCCNC(=O)CC[C@H](NC(=O)CCCCCCCCCCCCCCCCC(=O)O)C(=O)O)C(=O)N1CCC[C@H]1C(=O)N[C@@H](CCC(=O)O)C(=O)N[C@@H](C)C(=O)N[C@@H](CC(=O)O)C(=O)N[C@@H](C)C(=O)N[C@@H](CCC(=O)O)C(=O)N1CCC[C@H]1C(=O)N[C@@H](CCC(=O)O)C(=O)N[C@@H](CCC(=O)O)C(=O)N[C@@H](CC(C)C)C(=O)N[C@@H](CCC(N)=O)C(=O)N[C@@H](CCCNC(=N)N)C(=O)N[C@@H](Cc1ccc(O)cc1)C(=O)N[C@@H](Cc1ccc(O)cc1)C(=O)N[C@H](C(=O)N[C@@H](C)C(=O)N[C@@H](CC(C)C)C(=O)N[C@@H](CCCNC(=N)N)C(=O)N[C@@H](Cc1c[nH]cn1)C(=O)N[C@@H](Cc1ccc(O)cc1)C(=O)N[C@@H](Cc1ccc(O)cc1)C(=O)N[C@@H](CC(N)=O)C(=O)N[C@@H](Cc1c[nH]c2ccccc12)C(=O)N[C@@H](CC(C)C)C(=O)N[C@H](C(=O)N[C@@H](CCCNC(=N)N)C(=O)N[C@@H](CCC(N)=O)C(=O)N[C@@H](CCCNC(=N)N)C(=O)N[C@@H](Cc1ccc(O)cc1)C(N)=O)[C@@H](C)O)C(C)C [Compound 3, N{alpha-4}-(3-methylbutanoyl)-N{epsilon-7}-(6-[(4S)-4-carboxy-4-(17-carboxyheptadecanamido)butanamido]hexanoyl)[4A,6A,7K,9E,10A,13E,18Q,22V,23A,28Y,30W,31L]-hPYY(4-36)] | – | –
4.98 nM | 9.7 mg/mL | 9.8 mg/mL | CC(C)CC(=O)N[C@@H](C)C(=O)N1CCC[C@H]1C(=O)N[C@@H](CCC(=O)O)C(=O)N[C@@H](CCCCNC(=O)CCCCCNC(=O)CC[C@H](NC(=O)CCCCCCCCCCCCCCCCC(=O)O)C(=O)O)C(=O)N1CCC[C@H]1C(=O)N[C@@H](CCC(=O)O)C(=O)N[C@@H](CCC(=O)O)C(=O)N[C@@H](CC(=O)O)C(=O)N1CCC[C@H]1C(=O)N[C@H](C(=O)N1CCC[C@H]1C(=O)N[C@@H](CCC(=O)O)C(=O)N[C@@H](CCC(=O)O)C(=O)N[C@@H](CC(C)C)C(=O)N[C@@H](CCC(N)=O)C(=O)N[C@@H](CCCNC(=N)N)C(=O)N[C@@H](Cc1ccc(O)cc1)C(=O)N[C@@H](Cc1ccc(O)cc1)C(=O)N[C@H](C(=O)N[C@@H](CO)C(=O)N[C@@H](CC(C)C)C(=O)N[C@@H](CCCNC(=N)N)C(=O)N[C@@H](Cc1c[nH]cn1)C(=O)N[C@@H](Cc1ccc(O)cc1)C(=O)N[C@@H](Cc1ccc(O)cc1)C(=O)N[C@@H](CC(N)=O)C(=O)N[C@@H](Cc1c[nH]c2ccccc12)C(=O)N[C@@H](CC(C)C)C(=O)N[C@H](C(=O)N[C@@H](CCCNC(=N)N)C(=O)N[C@@H](CCC(N)=O)C(=O)N[C@@H](CCCNC(=N)N)C(=O)N[C@@H](Cc1ccc(O)cc1)C(N)=O)[C@@H](C)O)C(C)C)[C@@H](C)O [Compound 22, N{alpha-4}-(3-methylbutanoyl)-N{epsilon-7}-(6-[(4S)-4-carboxy-4-(17-carboxyheptadecanamido)butanamido]hexanoyl)[4A,7K,9E,12P,13T,18Q,22V,28Y,30W,31L]-hPYY(4-36)] | – | –

Compound | Ki [1] | Sol6 ([2]; pH 6) | Sol7 ([2]; pH 7) | Sol6 ([2]; solubility in the pH 6 condition, measured pH printed in the next column (6.0-6.3)) | Sol7 ([2]; solubility in the pH 7 condition, measured pH printed in the next column (6.6-6.9))
CC(C)CC(=O)N[C@@H](C)C(=O)N1CCC[C@H]1C(=O)N[C@@H](CCC(=O)O)C(=O)N[C@@H](CCCCNC(=O)CCCCCNC(=O)CC[C@H](NC(=O)CCCCCCCCCCCCCCCCC(=O)O)C(=O)O)C(=O)N1CCC[C@H]1C(=O)N[C@@H](CCC(=O)O)C(=O)N[C@@H](CCC(=O)O)C(=O)N[C@@H](CC(=O)O)C(=O)N[C@@H](C)C(=O)N[C@H](C(=O)N1CCC[C@H]1C(=O)N[C@@H](CCC(=O)O)C(=O)N[C@@H](CCC(=O)O)C(=O)N[C@@H](CC(C)C)C(=O)N[C@@H](CCC(N)=O)C(=O)N[C@@H](CCCNC(=N)N)C(=O)N[C@@H](Cc1ccc(O)cc1)C(=O)N[C@@H](Cc1ccc(O)cc1)C(=O)N[C@H](C(=O)N[C@@H](CO)C(=O)N[C@@H](CC(C)C)C(=O)N[C@@H](CCCNC(=N)N)C(=O)N[C@@H](Cc1c[nH]cn1)C(=O)N[C@@H](Cc1ccc(O)cc1)C(=O)N[C@@H](Cc1ccc(O)cc1)C(=O)N[C@@H](CC(N)=O)C(=O)N[C@@H](Cc1c[nH]c2ccccc12)C(=O)N[C@@H](CC(C)C)C(=O)N[C@H](C(=O)N[C@@H](CCCCN)C(=O)N[C@@H](CCC(N)=O)C(=O)N[C@@H](CCCNC(=N)N)C(=O)N[C@@H](Cc1ccc(O)cc1)C(N)=O)[C@@H](C)O)C(C)C)[C@@H](C)O [Compound 180, N{alpha-4}-(3-methylbutanoyl)-N{epsilon-7}-(6-[(4S)-4-carboxy-4-(17-carboxyheptadecanamido)butanamido]hexanoyl)-[4A,7K,9E,13T,18Q,22V,28Y,30W,31L,33K]-hPYY(4-36)] | 15.1 nM | – | – | 9.9 mg/mL | 10.0 mg/mL
